This note sets out measurements from US9993001B2, “Herbicidal composition” (ISHIHARA SANGYO KAISHA, LTD., priority 2014, dated 2018).

What is called inhibition is how much of the control response was suppressed.

Common to all, as to type: in vivo
For assay [1], the system named is common lambsquarters (Chenopodium album L.). The experiment in a line: Test Example 24: pot, soil treatment, metobromuron + trifluralin. The note with it: soil, read-out: Growth inhibition rate of common lambsquarters (%) Measured value. An excerpt: (§1) When the herbicidal activity in a case where two active ingredients are combined, is larger than the simple sum of the respective herbicidal activities of the two active ingredients (the expected activity), it is called a synergistic effect. The activity expected by the combination of two active ingredients can be calculated as follows (Colby S. R., “Weed”, vol. 15, p. 20-22, 1967). E=α+β−(α×β[…]) where α: growth inhibition rate when treated with x (g/ha) of herbicide X, • β: growth inhibition rate when treated with y (g/ha) of herbicide Y, • E: growth inhibition rate expected when treated with x (g/ha) of herbicide X and y (g/ha) of herbicide Y.
(§2) On the 19th day after treatment, the state of growth of barnyardgrass was visually observed and evaluated in accordance with the following standards. The growth inhibition rate (%) [measured value] and the growth inhibition rate (%) [calculated value] calculated by the Colby's method, are shown in Table 2.
(§3) Growth inhibition rate (%)=inhibition rate) (%) of 0 (equivalent to the non-treated area) to 100 (complete kill)
Soil was put into a 1/300,000 ha pot, and seeds of common lambsquarters (Chenopodium album L.) were sown. On the day after seeding, predetermined amounts of SC containing metobromuron as active ingredient (same as in Test Example 1) and EC containing trifluralin as active ingredient (same as in Test Example 4) were diluted with water corresponding to 1,000 L per hectare and applied for soil treatment.
On the 21st day after treatment, the state of growth of common lambsquarters was visually observed and evaluated in the same manner as in Test Example 1.

Assay [2] concerns barnyardgrass (Echinochloa crus-qalli L.). The experiment in a line: Test Example 1: soybean field, soil treatment, metobromuron + chlorpropham. The note with it: soil, read-out: Growth inhibition rate of barnyardgrass (%) Measured value. An excerpt: When the herbicidal activity in a case where two active ingredients are combined, is larger than the simple sum of the respective herbicidal activities of the two active ingredients (the expected activity), it is called a synergistic effect. The activity expected by the combination of two active ingredients can be calculated as follows (Colby S. R., “Weed”, vol. 15, p. 20-22, 1967). E=α+β−(α×β[…]) where α: growth inhibition rate when treated with x (g/ha) of herbicide X, • β: growth inhibition rate when treated with y (g/ha) of herbicide Y, • E: growth inhibition rate expected when treated with x (g/ha) of herbicide X and y (g/ha) of herbicide Y. […]
On the 19th day after treatment, the state of growth of barnyardgrass was visually observed and evaluated in accordance with the following standards. The growth inhibition rate (%) [measured value] and the growth inhibition rate (%) [calculated value] calculated by the Colby's method, are shown in Table 2. […]

The test system of assay [3] is common chickweed (Stellaria media L.). The experiment in a line: Test Example 25: pot, soil treatment, metobromuron + trifluralin. The conditions noted are these: soil, read-out: Growth inhibition rate of common chickweed (%) Measured value.
For assay [4], the system named is barnyardgrass (Echinochloa crus-qalli L.). The experiment in a line: Test Example 4: soybean field, soil treatment, metobromuron + trifluralin. The conditions noted are these: soil, read-out: Growth inhibition rate of barnyardgrass (%) Measured value.
Text: as §1, §2
(§4) Growth inhibition rate (%)=inhibition rate) (%) of 0 (equivalent to the non-treated area) to 100 (complete kill) […]
On the 50th day after treatment, the state of growth of barnyardgrass (Echinochloa crus-qalli L.) which occurred naturally, was visually observed and evaluated in the same manner as in Test Example 1.

In assay [5] the test system is Nepalese Smartweed (Persicaria nepalensis (Meisn.) H. Gross). The experiment in a line: Test Example 6: adzuki bean field, soil treatment, metobromuron + S-metolachlor. The conditions noted are these: soil, read-out: Growth inhibition rate of Nepalese Smartweed (%) Measured value.
Text: as §1, §2, §3
In an adzuki bean agricultural field (9.6 square meters per one test section), predetermined amounts of SC containing metobromuron as active ingredient (same as in Test Example 1) and EC containing S-metolachlor as active ingredient (same as in Test Example 2) were diluted with water corresponding to 1,000 L per hectare and applied for soil treatment, prior to germination of adzuki bean and weeds.
On the 39th day after treatment, the state of growth of Nepalese Smartweed (Persicaria nepalensis (Meisn.) H. Gross) which occurred naturally, was visually observed and evaluated in the same manner as in Test Example 1.

Assay [6] concerns barnyardgrass (Echinochloa crus-qalli L.). The experiment in a line: Test Example 21: pot, soil treatment, metobromuron + prometryn. The conditions noted are these: soil, read-out: Growth inhibition rate of barnyardgrass (%) Measured value.
Text: as §1, §2, §3
Soil was put into a 1/300,000 ha pot, and seeds of barnyardgrass (Echinochloa crus-qalli L.) were sown. On the day after seeding, predetermined amounts of SC containing metobromuron as active ingredient (same as in Test Example 1) and WP containing prometryn as active ingredient (trade name: Gesagard 50, manufactured by Nippon Kayaku Co., Ltd.) were diluted with water corresponding to 1,000 L per hectare and applied for soil treatment.
(§5) On the 21st day after treatment, the state of growth of barnyardgrass was visually observed and evaluated in the same manner as in Test Example 1.

The subject of assay [7] is black nightshade (Solanum nigrum L.). The experiment in a line: Test Example 14: pot, soil treatment, metobromuron + pyroxasulfone. The conditions noted are these: soil, read-out: Growth inhibition rate of black nightshade (%) Measured value.
Text: as §1, §2, §3
Soil was put into a 1/300,000 ha pot, and seeds of black nightshade (Solanum nigrum L.) were sown. Prior to germination of black nightshade, predetermined amounts of SC containing metobromuron as active ingredient (same as in Test Example 1) and WG containing pyroxasulfone as active ingredient (same as in Test Example 13) were diluted with water corresponding to 1,000 L per hectare and applied for soil treatment.
On the 12th day after treatment, the state of growth of black nightshade was visually observed and evaluated in the same manner as in Test Example 1.

Assay [8] shares this test system. The experiment in a line: Test Example 17: pot, soil treatment, metobromuron + chlorpropham. The note with it: soil, read-out: Growth inhibition rate of black nightshade (%) Measured value.
Text: as §1, §2, §3
(§6) Soil was put into a 1/300,000 ha pot, and seeds of barnyardgrass (Echinochloa crus-galli L.) were sown. On the day after seeding, predetermined amounts of SC containing metobromuron as active ingredient (same as in Test Example 1) and EC containing chlorpropham as active ingredient (same as in Test Example 1) were diluted with water corresponding to 1,000 L per hectare and applied for soil treatment.
as §5
The test was carried out in the same manner as in Test Example 15 except that barnyardgrass (Echinochloa crus-galli L.) was changed to black nightshade (Solanum nigrum L.), to obtain the results as shown in Table 18.

Assay [9] concerns barnyardgrass (Echinochloa crus-galli L.). The experiment in a line: Test Example 32: pot, soil treatment, metobromuron + chlorpropham. The conditions noted are these: soil, read-out: Growth inhibition rate of barnyardgrass (%) Measured value.
Text: as §1, §2, §3, §6
On the 26th day after treatment, the state of growth of barnyardgrass was visually observed and evaluated in the same manner as in Test Example 1.

In assay [10] the test system is Oriental lady's thumb (Persicaria longiseta). The experiment in a line: Test Example 7: common bean field, soil treatment, metobromuron + trifluralin. The note with it: soil, read-out: Growth inhibition rate of Oriental lady's thumb (%) Measured value.
Text: as §1, §2, §4
On the 49th day after treatment, the state of growth of Oriental lady's thumb (Persicaria longiseta) which occurred naturally, was visually observed and evaluated in the same manner as in Test Example 1.

`CON(C)C(=O)Nc1ccc(Br)cc1` [Metobromuron, 3-(4-bromophenyl)-1-methoxy-1-methylurea]: the inhibition at 375 g/ha in [1] worked out at 50%; in [7], 64%; in [9], 40%. In addition, the inhibition at 1000 g/ha in assay [2] amounted to 58%; in assay [4], 30%; in assay [5] it was 35%; in [6] it was 43%; in assay [8] it was 78%. Moreover, the inhibition at 250 g/ha in assay [3] came to 73%. Further, the inhibition at 1500 g/ha in assay [5] stood at 40%; in assay [6], 72%; in assay [10] it was 10%. Further, the inhibition at 750 g/ha worked out at 20% in assay [6] and 83% in assay [7].
